Test results from patent US10792301B2, “Therapeutic polysaccharide midi-GAGR and related materials and methods” (priority 2015, dated 2020).

Target: T1, FGFR1 (Mus musculus, UniProt P16092)
T1 construct: Whole mouse brains were homogenized for cytosol extraction in PMEE buffer containing 1% Igepal CA-630; from tissue; host or cells: mouse cerebral cortex / whole brain detergent extract
Experiment: Affinity chromatography with midi-GAGR- or dextran-conjugated sepharose beads, FGFR1 immunoblot
Assay type: binding
Details: brain extract in 0.5% Igepal PMEE buffer
Procedure: To examine whether midi-GAGR interacts with synaptosomal FGFR1 or not, an affinity chromatography using midi-GAGR-conjugated sepharose beads was performed. Either midi-GAGR or dextran were conjugated to epoxy-activated sepharose 6B that is a pre-activated medium that can be conjugated to the hydroxyl groups of carbohydrates. Briefly, 200 μL of 7.4 mM midi-GAGR or 5 kD dextran in H2O was mixed with 200 μL of epoxy-activated sepharose beads in a microtube and incubated on a rotator (16 h, 37° C.). The mixture was spun down at 1,000×g (10 min) to separate bead-bound polysaccharides from unbound. Unoccupied active sites on beads were blocked by incubation (4 h, 45° C.) in 1 M ethanolamine (pH 8). Then, beads were washed with three cycles of alternating pH solutions—0.1 M acetate buffer (pH 4) and 0.1 M Tris-HCl buffer (pH 8), both containing 0.5 M NaCl. The conjugation of polysaccharides to beads was confirmed by phenol-sulfuric acid colorimetry. Cerebral cortices were dissected from four female mice (BALB/C, 8 wks old) and homogenized with a hand grinder in 1 mL of PMEE homogenization buffer plus 1% Igepal CA-630 and protease inhibitors (PIs). The homogenate was centrifuged at 1,000×g (10 min) to remove nuclei and undisrupted cells. The supernatant was subjected to 5-6 strokes through 27 G needle. Post-nuclear supernatant was centrifuged at 1,000×g (15 min). […]

T1 sequence (P16092 22-822): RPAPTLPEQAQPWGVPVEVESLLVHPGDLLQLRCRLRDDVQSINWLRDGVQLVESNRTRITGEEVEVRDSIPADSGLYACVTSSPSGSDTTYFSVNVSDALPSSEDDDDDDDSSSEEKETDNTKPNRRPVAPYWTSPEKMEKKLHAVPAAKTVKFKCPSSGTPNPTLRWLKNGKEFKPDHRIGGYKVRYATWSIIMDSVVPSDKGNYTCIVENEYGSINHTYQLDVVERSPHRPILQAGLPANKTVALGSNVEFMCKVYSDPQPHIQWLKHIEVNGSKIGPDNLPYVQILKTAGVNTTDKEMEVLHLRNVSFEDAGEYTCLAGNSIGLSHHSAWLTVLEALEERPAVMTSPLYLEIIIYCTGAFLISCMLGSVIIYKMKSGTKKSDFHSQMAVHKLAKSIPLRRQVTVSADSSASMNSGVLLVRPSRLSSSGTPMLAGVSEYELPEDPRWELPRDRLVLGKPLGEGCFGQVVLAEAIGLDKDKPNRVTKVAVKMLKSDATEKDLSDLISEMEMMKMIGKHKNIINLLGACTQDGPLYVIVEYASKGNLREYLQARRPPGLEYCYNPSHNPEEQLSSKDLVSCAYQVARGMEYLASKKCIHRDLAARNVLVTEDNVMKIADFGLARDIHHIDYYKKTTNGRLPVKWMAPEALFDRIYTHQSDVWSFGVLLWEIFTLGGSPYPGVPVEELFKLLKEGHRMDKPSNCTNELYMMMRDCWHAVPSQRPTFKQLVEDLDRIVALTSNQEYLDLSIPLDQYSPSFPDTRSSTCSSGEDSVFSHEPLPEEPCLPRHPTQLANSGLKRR

dextran
FGFR1 eluted from polysaccharide-conjugated beads: not from dextran beads
